Converted amounts (≈) assume the structure as drawn. Where two headings read alike, the source gives them in different places.
Assays:
[1] = tested on: PDE1B; parameters: method as in PMID 31899535; settings: cited from earlier work
[2] = tested on: PDE7A; settings: reported in previous publication; read-out: IC50 for PDE7A inhibition; cited from earlier work
[3] = tested on: PDE4B; settings: reported in previous publication; read-out: IC50 for PDE4B inhibition; cited from earlier work
[4] = tested on: PDE3A; parameters: method as in PMID 31899535; settings: cited from earlier work
[5] = tested on: ConA-induced hepatitis; test: Pharmacodynamic study and PK/PD/disease progression modeling in ConA-induced hepatitis; type: in vivo, female BALB/c mice; settings: for IC50: Mus musculus, serum concentration, PK/PD model, IP 50 or 100 mg/kg, ConA 20 mg/kg IV
Protocol: ConA was dissolved in sterile saline (2 mg·mL^−1). The studied compounds (GRMS-55, rolipram, and BRL-50481) were dissolved in a mixture of DMSO, PEG 400, and water for injection at a ratio of 25:25:50 (v/v/v). Mice were given an IP injection of the investigated compounds or the corresponding volume of vehicle alone and, thirty minutes later, intravenously (IV) administered with ConA solution. An additional control group received vehicle alone IP instead of the studied compounds followed by IV injection of sterile saline. ConA was given at a dose of 20 mg·kg^−1. Mice were exsanguinated at several time points post-ConA injection. Blood samples were allowed to clot for 0.5 h at room temperature and then centrifuged at 3000× g for 10 min to obtain the serum, which was stored at −20 °C until further analysis.
The influence of PDE inhibitors on the levels of inflammatory mediators and transaminases in ConA-treated mice was investigated in two separate experiments. In the preliminary study, the animals were pretreated IP with GRMS-55 at a dose of 50 mg·kg^−1, the PDE4-selective inhibitor rolipram at a dose of 10 mg·kg^−1, or the PDE7-selective inhibitor BRL-50481 at a dose of 50 mg·kg^−1. Doses of the investigated compounds were chosen based on the results of previous studies. Subsequently, mice were given an IV injection of ConA and sacrificed at 8 h following mitogen dosing. The levels of TNF-α, IL-6, and IFN-γ and the activities of ALT and AST in the mouse serum were measured. This preliminary experiment allowed comparing the activity of the studied PDE inhibitors in this AIH model and helped to select the doses of GRMS-55 for a subsequent pharmacodynamic study. In the final pharmacodynamic experiment, GRMS-55 was administered at two dose levels (50 and 100 mg·kg^−1) followed by ConA administration at a dose of 20 mg·kg^−1. Animals were sacrificed at various time points post-ConA dosing (1, 2, 4, 8 and 24 h). The levels of TNF-α, IL-1β, IL-4, IL-6, IL-10, IL-12, IL-17A, and IFN-γ were measured using a multiplex Luminex assay. In addition, the activities of ALT and AST in the mouse serum were assessed. The concentration–time profiles of the selected biomarkers obtained in this experiment combined with the results of pharmacokinetic analysis allowed the development of a semi-mechanistic PK/PD/disease progression model and the investigation of concentration–effect relationships of GRMS-55.
The serum samples from the preliminary pharmacological study were analyzed using ELISA tests according to the protocols provided by the manufacturers. The TNF-α concentrations were measured using the Mouse TNF-α Quantikine ELISA Kit (R&D Systems, Minneapolis, MN, USA), while the concentrations of IL-6 and IFN-gamma were quantified by ELISA kits manufactured by Cloud-Clone Corp. (Houston, TX, USA). The absorbance of samples was measured on a POLARstar Omega multi-mode microplate reader (BMG LABTECH, Ortenberg, Germany) set at 450 nm wavelength. TNF-α, IL-1β, IL-6, IL-4, IL-10, IL-12, IL-17A, and IFN-γ serum levels in samples from pharmacodynamic experiment were determined by a premixed Magnetic Luminex Assay (R&D Systems, Inc., Minneapolis, MN, USA) according to the manufacturer’s protocol. Serum AST and ALT activities were quantified on a chemistry analyzer BS-800 (Shenzhen Mindray Bio-medical Electronics Co., Ltd., Shenzhen, China).
A PK/PD/disease progression model illustrated in Figure 1 was developed considering the mechanism of action of the investigated compound and the mechanisms of progression of ConA-induced hepatitis, i.e., the subsequent stages leading to the production and release of relevant biomarkers.
Moreover, possible interrelationships and interactions among the measured biomarkers were considered during the model building process. […]

With `Cn1c(=O)c2c(nc(NCCc3ccccc3)n2CCCC(=O)NN=Cc2ccccc2O)n(C)c1=O` [GRMS-55, 4-(1,3-dimethyl-2,6-dioxo-8-(phenethylamino)-1,2,3,6-tetrahydro-7H-purin-7-yl)-N′-(2-hydroxybenzylidene)butanehydrazide] as the compound, how does the “potency of PDE1B suppression” value [1] read?
Its value is “high”.

What about the IC50 [2] of the same compound?
Its IC50 is 7.3 µM.

What about the IC50 [3] of the same compound?
The IC50 was 26.9 µM.

What about the “potency of PDE3A suppression” value [4] of the same compound?
Its value is “moderate”.

And the “effect on serum IL-4 level” value ([5]; 1, 2 and 8 h post-ConA, both dose groups)?
Its value is “decreased”.

And the “effect on ALT and AST activities” value ([5]; 50 or 100 mg/kg IP)?
The value was “significant and prominent decrease”.

And the “effect on serum IL-12 level” value ([5]; 4 h post-ConA, 50 and 100 mg/kg IP)?
The value was “significantly decreased”.

And the “effect on serum IL-1β level” value ([5]; 8 h post-ConA, 50 and 100 mg/kg IP)?
The value was “significantly decreased”.

What about the “effect on serum IL-17A concentration” value ([5]; 8 h post-ConA, both dose levels) of the same compound?
Its value is “decreased”.

And the IC50 ([5]; read-out: IC50_IFN-γ, concentration resulting in 50% of Imax of IFN-γ)?
The IC50 was 12.3 µg/mL (≈ 24.4 µM).

What about the IC50 ([5]; read-out: IC50_IL-6, concentration resulting in 50% of Imax of IL-6) of the same compound?
The IC50 was 13.4 µg/mL (≈ 26.6 µM).

And the IC50 ([5]; read-out: IC50_TNF-α, concentration resulting in 50% of Imax of TNF-α)?
Its IC50 is 7.97 µg/mL (≈ 15.8 µM).

— publication PMC8143339, “PK/PD Modeling of the PDE7 Inhibitor—GRMS-55 in a Mouse Model of Autoimmune Hepatitis” (Pharmaceutics, 2021)
